Counter-ions that a name gives are not always drawn.
Tests used:
HCT116 cells = experiment: Cell Viability Test, HCT116; type: cell-based; settings: HCT-116; HCT116 (human colon cancer cell line); 1 ng/mL TNFα, 0.5% DMSO, 48 hours; read-out: Cell Viability Inhibition IC50
Method: (§1) RPMI 8226 cells (ATCC #CCL-155; human multiple myeloma cell line) are grown in RPMI 1640 medium (Gibco #11875-093) supplemented with 10% FBS (fetal bovine serum, Gibco #10082-147), 10 mM HEPES (Gibco #15630-080), 1 mM sodium pyruvate (Gibco #11360-070), and 4.5 mg/mL glucose. HCT116 cells (ATCC #CCL-247; human colon cancer cell line) are grown in McCoy's 5A modified medium (Gibco #16600-082) supplemented with 10% FBS (Gibco #10082-147). H460 cells (ATCC #HTB-177; human non-small cell lung cancer line) are grown in RPMI 1640 (Gibco #11875-093) supplemented with 10% FBS (Gibco #10082-147). […]
(§2) For compound testing, various cancer cells are seeded at 5,000 cells/well in 100 μl corresponding media specified above for each cell line in 96-well plates one day prior to treatment. […] Cell death in each well is determined by the addition of 15 μL of the One Solution Reagent (The CellTiter 96® AQueous One Solution Reagent, Promega #G3580). After 1-2 hours of incubation at 37° C., optical densities at 490 nm are measured with a microplate reader (Molecular Devices SpectraMax). Inhibition of cell viability is determined by comparison to the control cells treated in the absence of a test compound.

IKKbeta = biological target: T1, IKKbeta (Homo sapiens, UniProt O14920); experiment: IKK-beta Kinase Assay; type: biochemical; settings: purified IKKβ 4 nM, 20 μM IKB peptide, 10 μM ATP, 90 minutes; absolute IC50; read-out: Enzyme Inhibition IC50
T1 sequence (O14920 1-756): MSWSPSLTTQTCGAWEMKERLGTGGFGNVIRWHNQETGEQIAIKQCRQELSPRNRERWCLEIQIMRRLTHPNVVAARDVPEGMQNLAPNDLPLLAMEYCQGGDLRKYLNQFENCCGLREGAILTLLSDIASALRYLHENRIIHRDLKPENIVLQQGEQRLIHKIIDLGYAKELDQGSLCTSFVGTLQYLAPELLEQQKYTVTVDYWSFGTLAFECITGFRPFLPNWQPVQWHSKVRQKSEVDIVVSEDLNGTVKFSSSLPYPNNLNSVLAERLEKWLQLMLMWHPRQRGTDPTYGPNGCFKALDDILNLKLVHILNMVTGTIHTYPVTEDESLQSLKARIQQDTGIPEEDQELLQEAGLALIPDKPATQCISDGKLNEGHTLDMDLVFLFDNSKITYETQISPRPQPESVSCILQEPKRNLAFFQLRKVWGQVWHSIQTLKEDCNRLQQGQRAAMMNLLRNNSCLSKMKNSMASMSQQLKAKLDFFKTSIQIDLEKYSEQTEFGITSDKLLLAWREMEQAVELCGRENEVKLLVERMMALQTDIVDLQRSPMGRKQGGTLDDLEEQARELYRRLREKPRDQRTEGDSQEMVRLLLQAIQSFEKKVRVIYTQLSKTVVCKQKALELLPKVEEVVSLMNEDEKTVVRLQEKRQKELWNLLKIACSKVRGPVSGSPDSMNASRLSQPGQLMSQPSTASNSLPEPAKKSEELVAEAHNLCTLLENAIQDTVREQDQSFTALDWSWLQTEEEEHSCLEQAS
Method: The kinase activity of purified IKKβ is measured in vitro using a synthetic IKB peptide fragment (-[…]-) derived from IKB protein as a substrate. All reactions (30 μL) are started by the addition of the IKKb enzyme (final concentration: 4 nM) and then incubated at room temperature for 90 minutes in the reaction mix containing 20 μM IKB peptide, 10 μM ATP, 5 mM MgCl2, 50 mM Tris-HCl pH 7.5, 3 mM DTT, 4% DMSO, 1 mM Sodium Orthovandate, 0.5 mM β-glycerophosphate, 0.01% Triton X-100, 4 μCi γ-^33p-ATP/reaction. Reactions are terminated by addition of 30 μL 10% phosphoric acid, and the terminated reaction mix is filtered through a phosphocellulose membrane to remove unused γ-^33P-ATP. After four washes with 0.5% phosphoric acid, radio-labeled products bound to the filter are counted using a microbeta counter. All exemplified compounds are initially tested at 10 concentrations (20 μM down to 1 nM) using a 1:3 serial dilution scheme on the Beckman Tecan serial diluter. Calculation is done using a software package from IDBS (Activity Base) where an absolute IC50 value (non-linear regression) is calculated. Example 20 is specifically detailed below.

RPMI 8226 cells = experiment: Cell Viability Test, RPMI-8226; type: cell-based; settings: RPMI-8226 (human multiple myeloma cell line); 1 ng/mL TNFα, 0.5% DMSO, 48 hours; read-out: Cell Viability Inhibition IC50
Method: as §1, §2

A2780 cells = experiment: Cell Viability Test, A2780; type: cell-based; settings: A2780 (human ovarian carcinoma); 1 ng/mL TNFα, 0.5% DMSO, 48 hours; read-out: Cell Viability Inhibition IC50
Method: as §1, §2

U87MG cells = experiment: Cell Viability Test, U87MG; type: cell-based; settings: U-87 MG; U87MG (human glioblastoma cell line); 1 ng/mL TNFα, 0.5% DMSO, 48 hours; read-out: Cell Viability Inhibition IC50
Method: as §1, §2

H460 cells = experiment: Cell Viability Test, H460; type: cell-based; settings: NCI-H460; H460 (human non-small cell lung cancer line); 1 ng/mL TNFα, 0.5% DMSO, 0.5 μg/mL cycloheximide, 48 hours; read-out: Cell Viability Inhibition IC50
Method: as §1, §2

IC50 (HCT116 cells): 19.2 µM | IC50 (IKKbeta): 0.046 µM | IC50 (RPMI 8226 cells): 2.2 µM | IC50 (A2780 cells): 11.7 µM | IC50 (U87MG cells): 22.3 µM | IC50 (H460 cells): 9 µM
Structure (SMILES): CN1CCN(CCCNc2ncc(Cl)c(-c3cc4c(C(=O)NC5CC5)cccc4s3)n2)CC1 [Example 20, 2-{5-Chloro-2-[3-(4-methylpiperazin-1-yl)-propylamino]-pyrimidin-4-yl}-benzo[b]thiophene-4-carboxylic acid cyclopropylamide tri-hydrochloride]
